Assay results reported in US20050255097A1, “Modified venom and venom components as anti-retroviral agents” (priority 2004, published 2005).

Key:
herpesvirus = test: Antiviral activity against herpes virus; type: cell-based
mice = type: in vivo
Text: Administration of a highly toxic substance such as cobratoxin for therapeutic purposes is fraught with obvious difficulties, even when highly diluted. As a diluted substance, its potential effectiveness is reduced, and due to its high affinity for the nAchR, continued use could result in accumulation of the toxin at neuromuscular junctions and the diaphragm with the potential for adverse events. Alpha cobratoxin, of the Thailand cobra, Naja naja kaouthia, is a homogeneous non-glycosylated polypeptide composed of 71 amino acids with a molecular weight of 7821d and a pI of 9.6. Detoxification of alpha-cobratoxin can be achieved by exposure to heat, formamide, hydrogen peroxide, perchloric acid, ozone or other oxidizing agents. The result of exposure of cobratoxin to oxidizing agents is modification of amino acid side chains as well as the lysis of one or more disulfide bonds. […] The procedures used for detoxification described here are based upon the work of Sanders, who preferred the use of hydrogen peroxide (Sanders, et al., 1975). Loss of toxicity by oxidized alpha-neurotoxins (MCTX), as cobratoxin, can be determined by the intraperitoneal (IP) injection of excess levels of the modified protein into mice. […]
The endpoint of the above reactions are most easily determined by assessing the toxicity of the preparation in mice. […]

[1] = type: cell-based; settings: virus not specified
Semliki Forest virus = test: Antiviral activity against Semliki Forest virus (plaque assay); type: cell-based
Text: Alternatively, an enzyme linked immunosorbant assay (ELISA) can evaluate loss of toxicity, as well as potential potency in terms of continued ability to bind to the nAchR. […] This enables a measurement of the depression in binding of the modified neurotoxin to nAchR, indicative of loss of toxicity, while simultaneously indicating a continued ability of the modified toxin to bind to the nAchR providing a measure of potency (Raymond; unpublished data). To test the effectiveness, or potency of detoxified venom, Sanders utilized a plaque assay with Semliki Forest virus (Miller, et al., 1977).

[2] = pI and pH of protein solutions; type: physicochemical
[3] = test system: T cells from peripheral blood; settings: Mizuno, et al., 1982; cited from earlier work

## alpha-cobratoxin: native non-glycosylated polypeptide of 71 amino acids from the Thailand cobra, Naja naja kaouthia
herpesvirus
  antiviral activity against herpes: does not have any antiviral activity
mice; injected subcutaneously or intraperitoneally, death observable within hours
  LD50 in mice: 1.2 µg
mice; injection of 1.5 mcg, 25 g mouse
  time to death: ≤ 25 min
[1]
  antiviral activity: does not demonstrate antiviral activity
Semliki Forest virus
  antiviral activity against Semliki Forest virus: does not have any antiviral activity
[2]
  pH of solution: 8.5
  pI: 9.6

## C[N+](C)(C)CCOC(N)=O.[Cl-] [carbamylcholine chloride]
[3]
  decrease of E-rosette formation: 30%-40%
